Like-named read-outs stand apart in the source and are kept apart here.
How the values were obtained:
SR = type: cell-based, human; settings: 10^Δ2-x, relative to compound 2
HCT-15 = type: cell-based, human; settings: 10^Δ2-x, relative to compound 2
UACC-62 = type: cell-based, human; settings: 10^Δ2-x, relative to compound 2
LOX IMVI = type: cell-based, human; settings: 10^Δ2-x, relative to compound 2
MCF7 = type: cell-based, human; settings: 10^Δ2-x, relative to compound 2
SNB-75 = type: cell-based, human; settings: 10^Δ2-x, relative to compound 2
SW-620 = type: cell-based, human; settings: 10^Δ2-x, relative to compound 2
SF-295 = type: cell-based, human; settings: 10^Δ2-x, relative to compound 2
SK-MEL28 = type: cell-based, human; settings: 10^Δ2-x, relative to compound 2
CAKI-1 = type: cell-based, human; settings: 10^Δ2-x, relative to compound 2
RXF 393 = type: cell-based, human; settings: 10^Δ2-x, relative to compound 2
NCI/ADR-RES = assay: cells; type: cell-based, human
MOLT-4 = type: cell-based, human; settings: 10^Δ2-x, relative to compound 2
SK-MEL2 = type: cell-based, human; settings: 10^Δ2-x, relative to compound 2
A549/ATCCC = type: cell-based, human; settings: 10^Δ2-x, relative to compound 2
ACHN = type: cell-based, human; settings: 10^Δ2-x, relative to compound 2
SNB-19 = type: cell-based, human; settings: 10^Δ2-x, relative to compound 2
Plasma pharmacokinetics = type: in vivo, CD-1 mice; settings: mice, iv 18 mg/kg
BT-549 = type: cell-based, human; settings: 10^Δ2-x, relative to compound 2
SK-OV-3 = type: cell-based, human; settings: 10^Δ2-x, relative to compound 2
OVCAR-8 = type: cell-based, human; settings: 10^Δ2-x, relative to compound 2
A498 = type: cell-based, human; settings: 10^Δ2-x, relative to compound 2
T-47D = type: cell-based, human; settings: 10^Δ2-x, relative to compound 2
UO-31 = type: cell-based, human; settings: 10^Δ2-x, relative to compound 2
OVCAR-4 = type: cell-based, human; settings: 10^Δ2-x, relative to compound 2
SF-268 = type: cell-based, human; settings: 10^Δ2-x, relative to compound 2
HOP-62 = type: cell-based, human; settings: 10^Δ2-x, relative to compound 2
UACC-257 = type: cell-based, human; settings: 10^Δ2-x, relative to compound 2
NCI-H226 = type: cell-based, human; settings: 10^Δ2-x, relative to compound 2
M14 = type: cell-based, human; settings: 10^Δ2-x, relative to compound 2
SF-539 = type: cell-based, human; settings: 10^Δ2-x, relative to compound 2
NCI-H522 = type: cell-based, human; settings: 10^Δ2-x, relative to compound 2
U251 = type: cell-based, human; settings: 10^Δ2-x, relative to compound 2
PC-3 = type: cell-based, human; settings: 10^Δ2-x, relative to compound 2
[1] = tested on: COLO-205 colon cancer cells; assay: Subcutaneous COLO-205 colon xenograft; type: in vivo, athymic nu/nu mice; settings: iv q2dx10 at 10 mg/Kg and q3dx10 at 20 mg/Kg
[2] = tested on: COLO-205 (colon), A549 (non-small cell lung) and BXCP3 (pancreas); assay: cells; type: cell-based; settings: 72 h, read-out: average GI50 (50% of growth inhibition)
COLO 205 = type: cell-based, human; settings: 10^Δ2-x, relative to compound 2
MDA-MB-435 = type: cell-based, human; settings: 10^Δ2-x, relative to compound 2
HOP-92 = type: cell-based, human; settings: 10^Δ2-x, relative to compound 2
MDA-MB-468 = type: cell-based, human; settings: 10^Δ2-x, relative to compound 2
NCI-H23 = type: cell-based, human; settings: 10^Δ2-x, relative to compound 2
CCRF-CEM = type: cell-based, human; settings: 10^Δ2-x, relative to compound 2
[3] = tested on: EWS-FLI1 transcription factor; settings: compared to 1, as opposed to a non-specific promoter; cited from earlier work
OVCAR-3 = type: cell-based, human; settings: 10^Δ2-x, relative to compound 2
[4] = Tolerability during xenograft treatment; type: in vivo, athymic nu/nu mice; settings: iv q2dx10 10 mg/Kg and q3dx10 20 mg/Kg, colon and melanoma models
HL-60(TB) = type: cell-based, human; settings: 10^Δ2-x, relative to compound 2
60 cancer cell lines = assay: cells; type: cell-based, human; settings: for GI50: Homo sapiens
HCT-116 = type: cell-based, human; settings: 10^Δ2-x, relative to compound 2
EKVX = type: cell-based, human; settings: 10^Δ2-x, relative to compound 2
[5] = CD-1, mouse, in vivo
IGROV1 = type: cell-based, human; settings: 10^Δ2-x, relative to compound 2
SK-MEL-5 = type: cell-based, human; settings: 10^Δ2-x, relative to compound 2

## CO[C@@H]([C@@H]1Cc2cc3cc(O[C@H]4C[C@@H](O[C@H]5C[C@@H](O)[C@H](O)[C@@H](C)O5)[C@H](O)[C@@H](C)O4)c(C)c(O)c3c(O)c2C(=O)[C@H]1O[C@H]1C[C@@H](O[C@H]2C[C@@H](O[C@H]3C[C@H](O)[C@H](O)[C@@H](C)O3)[C@H](O)[C@@H](C)O2)[C@H](O)[C@@H](C)O1)[C@@H](O)C(C)=O [Compound 9, demycarosyl-3D-β-D-digitoxosyl-mithramycin SK]
SR
  activity improvement factor: 1.11
HCT-15
  activity improvement factor: 1.00
UACC-62
  activity improvement factor: 1.02
LOX IMVI
  activity improvement factor: 1.23
MCF7
  activity improvement factor: 0.92
SNB-75
  activity improvement factor: 0.93
SW-620
  activity improvement factor: 1.30
SF-295
  activity improvement factor: 2.00
SK-MEL28
  activity improvement factor: 1.46
CAKI-1
  activity improvement factor: 1.64
RXF 393
  activity improvement factor: 0.86
NCI/ADR-RES; 10^Δ2-x, relative to compound 2
  activity improvement factor: 0.15
NCI/ADR-RES; Homo sapiens
  GI50: > 10000 nM
MOLT-4
  activity improvement factor: 2.43
SK-MEL2
  activity improvement factor: 1.23
A549/ATCCC
  activity improvement factor: 2.04
ACHN
  activity improvement factor: 4.47
SNB-19
  activity improvement factor: 1.55
Plasma pharmacokinetics; after 30 min
  plasma level: ~1,7 μM
Plasma pharmacokinetics; after 120 min
  plasma level: below 0,1 μM
BT-549
  activity improvement factor: 0.94
SK-OV-3
  activity improvement factor: 3.85
OVCAR-8
  activity improvement factor: 1.51
A498
  activity improvement factor: 2.24
T-47D
  activity improvement factor: 1.74
UO-31
  activity improvement factor: 2.40
OVCAR-4
  activity improvement factor: 3.76
SF-268
  activity improvement factor: 1.40
HOP-62
  activity improvement factor: 2.26
UACC-257
  activity improvement factor: 1.66
NCI-H226
  activity improvement factor: 2.26
M14
  activity improvement factor: 2.19
SF-539
  activity improvement factor: 1.30
NCI-H522
  activity improvement factor: 0.79
U251
  activity improvement factor: 1.26
PC-3
  activity improvement factor: 4.62
[1]
  tumor growth of COLO-205 colon xenografts: reduced notably
[2]
  GI50: 300 to 1300 nM
COLO 205
  activity improvement factor: 2.26
MDA-MB-435
  activity improvement factor: 1.82
HOP-92
  activity improvement factor: 1.11
MDA-MB-468
  activity improvement factor: 1.48
NCI-H23
  activity improvement factor: 1.86
CCRF-CEM
  activity improvement factor: 1.14
[3]
  inhibition of luciferase activity driven by NRB01: inhibits more effectively
OVCAR-3
  activity improvement factor: 3.51
[4]
  tolerability in xenograft-bearing mice: well tolerated and no signs of toxicity or deaths
HL-60(TB)
  activity improvement factor: 2.24
60 cancer cell lines; read-out: Mean GI50
  GI50: 30 nM
60 cancer cell lines; read-out: Mean log(GI50) (converted)
  GI50: 30.2 nM
60 cancer cell lines; NCI-60 GI50
  fold more active than 10, in average: about 5 fold
HCT-116
  activity improvement factor: 1.17
EKVX
  activity improvement factor: 1.60
[5]
  fold less toxic than compound 3: about 2 fold
IGROV1
  activity improvement factor: 7.16
SK-MEL-5
  activity improvement factor: 1.62

— publication PMC3395220 (Journal of Medicinal Chemistry, 2012)
